Assay results published in patent US12173349B2, “Lung protease nanosensors and uses thereof” (Massachusetts Institute of Technology, priority 2018, dated 2024).
Where no end group is shown, it is not given here. [ ]: non-standard residue; d: D form. FAM = carboxyfluorescein fluorophore label

Experiments:
[1] = system: Staphylococcus aureus supernatant; test: cleavage of FRET-paired substrates by bacterial supernatant; format: biochemical; settings: S. aureus culture supernatant, fluorescence change at 30 minutes
Experimental: (§1) The specificity of LAS and ELA for P. aeruginosa cleavage was tested by collecting supernatants from PA01 or Staphylococcus aureus cultures and incubating them with FRET-paired substrates LAS-Q and ELA-Q in 384 well plates. […] To investigate whether the LAS and ELA substrates are also susceptible to cleavage by host proteases, each was incubated with recombinant mouse proteases.
(§2) Supernatant from PA01 and S. aureus were collected and added to substrates in 384 well plates and dequenching of FAM was monitored at 37° C. (Tecan). Fluorescence change at 30 minutes was reported. For recombinant protease assays, enzyme was added to the substrates in enzyme-specific buffer (MMP7 & 9 buffer: 50 mM Tris, 150 mM NaCl, 5 mM CaCl2), […], pH 7.5; Thrombin: PBS; NE: 100 mM HEPES, 500 mM NaCl, 0.05% Tween 20) in a 384 well plate for time-lapse fluorimetry to measure dequenching at 37° C. (Tecan).

[2] = system: PA01 supernatant; test: as above; format: biochemical, Pseudomonas aeruginosa
Experimental: as §1, §2

[3] = system: P. aeruginosa clinical isolate strains; test: cleavage of FRET-paired substrates by clinical isolate supernatants; format: biochemical, Pseudomonas aeruginosa
Experimental: P. aeruginosa strains isolated from de-identified clinical samples were generously provided by Dr. Deborah Hung, MD, PhD (Massachusetts General Hospital). Cultures of each were grown in LB broth overnight, then were subcultured in fresh LB and each strain grown to OD-matched mid log phase (OD600˜0.5). Supernatants were collected by centrifugation and substrate cleavage was monitored as described above.

[4] = biological target: thrombin (Mus musculus, UniProt P19221); test: recombinant host protease cleavage assay; format: biochemical
Experimental: as §1, §2

[5] = biological target: MMP13 (Mus musculus, UniProt P33435); test: recombinant host protease cleavage assay; format: biochemical
Experimental: as §1, §2

[6] = biological target: T1, neutrophil elastase (Mus musculus, UniProt Q3UP87); test: recombinant host protease cleavage assay; format: biochemical
T1 sequence (Q3UP87 27-265): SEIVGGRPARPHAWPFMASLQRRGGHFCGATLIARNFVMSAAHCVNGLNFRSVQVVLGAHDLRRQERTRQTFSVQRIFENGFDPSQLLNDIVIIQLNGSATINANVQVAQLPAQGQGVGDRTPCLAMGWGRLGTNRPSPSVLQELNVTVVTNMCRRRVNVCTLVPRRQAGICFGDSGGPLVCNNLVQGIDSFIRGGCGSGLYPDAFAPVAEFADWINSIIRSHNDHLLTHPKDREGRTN
Experimental: as §1, §2

[7] = biological target: T2, MMP7 (Mus musculus, UniProt Q10738); test: recombinant host protease cleavage assay; format: biochemical
T2 sequence (Q10738 95-264): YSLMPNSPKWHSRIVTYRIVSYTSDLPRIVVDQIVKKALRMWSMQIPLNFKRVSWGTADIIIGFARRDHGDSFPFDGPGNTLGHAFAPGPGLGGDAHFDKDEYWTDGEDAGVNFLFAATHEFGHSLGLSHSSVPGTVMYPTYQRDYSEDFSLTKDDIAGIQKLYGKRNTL
Experimental: as §1, §2

[8] = system: Kras and p53 mutant lung adenocarcinoma (KP mice); test: urinary ABN readout and random forest classification in KP lung adenocarcinoma model; format: in vivo; settings: KP mice
Experimental: To characterize ABN performance in vivo, 14 protease-sensitive ABNs were administered to KP mice and healthy, age and sex-matched controls at 5, 7.5 and 10.5 weeks after tumor initiation. Mouse bladders were voided one hour after intrapulmonary delivery and all fresh urine produced during the subsequent hour (from 60-120 minutes after administration) was pooled and collected. LC-MS/MS was performed and peak area ratios (defined as peak area of urinary reporter divided by peak area of spiked-in internal standard) of protease-sensitive reporters were mean-normalized within each sample to reduce mouse-to-mouse variation.
A random forest classifier was then sought to be built to enable prospective diagnosis of lung cancer in KP mice. Random forest is a high-performance classifier, applicable to a wide variety of classification tasks, that generates a collection of decision trees (a “forest”) that are sampled to produce classification results (Breiman, Machine Learning 45, 5-32, 2001). A random forest classifier was trained using 50% of control mice at 5 weeks, 7.5 weeks and 10.5 weeks, as well as 50% of KP mice at 7.5 weeks (FIG. 6A). The classifier assigned a probability that each mouse belonged to either the KP cohort or the healthy control cohort (FIG. 6B, “Training” panel), achieving perfect separation of control and KP mice. The classifier was then sought to be tested on an independent validation cohort consisting of classifier-naive KP mice at 5 weeks, 7.5 weeks and 10.5 weeks post-induction, as well as the remaining control mice from each time point.
Male B6/SV129 Kras^LSL-G12D/+; Trp53^fl/fl (KP) mice between 18 and 30 weeks old were used for lung adenocarcinoma experiments. Tumors were initiated, as described previously (DuPage et al., Nat Protoc 4, 1064-1072 (2009)), by the intratracheal administration of 50 μL of adenovirus-SPC-Cre (2.5×10^8 PFU in Opti-MEM with 10 mM CaCl2)) under isoflurane anesthesia. […] Tumor growth was monitored by micro computed tomography (microCT) imaging (General Electric) and was scored by a blinded radiation oncologist using MicroView (Parallax Innovations) (Table 4). Tumor volumes were calculated by using the ROI sphere/elliptical tool.
ABN constructs (GluFib-Substrate-PEG-840 kDa) for urinary experiments were synthesized by CPC Scientific (Sunnyvale, CA). ABNs were dosed (50 μL total volume, 20 μM concentration per ABN) by intratracheal intubation, as described above. Bladders were voided 60 minutes after ABN administration and all urine produced 60-120 min after ABN administration was collected using custom tubes in which the animals rest upon 96-well plates that capture urine. Urine was pooled and frozen at −80° C. until analysis by LC-MS/MS.
Liquid chromatography/tandem mass spectrometry was performed by Syneos Health (Princeton, NJ) using a Sciex 6500 triple quadrupole instrument. Briefly, urine samples were treated with UV irradiation to photocleave the ANP linker and liberate the Glu-Fib reporter from residual peptide fragments. Samples were extracted by solid-phase extraction and analyzed by multiple reaction monitoring by LC-MS/MS to quantify concentration of each Glu-Fib mass variant. Analyte quantities were normalized to a spiked-in internal standard and concentrations were calculated from a standard curve using peak area ratio (PAR) to the internal standard. Mean normalization was performed on PAR values to account for mouse-to-mouse differences in ABN inhalation efficiency and urine concentration.
Principal component analysis (PCA) was performed on mean normalized PAR values in the R statistical environment (Team, R.C. R, R Foundation for Statistical Computing, Vienna, Austria, 2017) using the prcomp function. Binary classification was performed using the Caret package (Kuhn, M. caret: Classification and Regression Training. (2017)) in the R statistical environment). […]

[9] = system: 15 proteases in the LUAD protease panel; test: in vitro recombinant protease screen of FRET-paired substrates; format: biochemical; settings: fluorescence fold change at 45 minutes; 1 μM substrate, 12.5 nM recombinant enzyme; MP metallo-, SP serine, AP aspartic protease
From the text: Hundreds of peptide sequences have been previously designed and validated as protease substrates, leveraging known catalytic specificities of different protease families, published datasets and substrate sequences in databases like cutDB and MEROPS (Igarashi et al., Nucleic Acids Res 35, D546-549, 2007; Rawlings et al., Nucleic Acids Res 46, D624-D632, 2018). Fourteen of these substrates were nominated in an effort to cover the specificity profiles of metallo-, serine and aspartic endoproteases, all of which were included in the LUAD protease panel, and the catalytic activity of each protease-substrate pair was characterized. Quenched probes that incorporated the 14 peptide substrates were synthesized such that they fluoresce upon proteolytic cleavage to enable real-time monitoring of protease activity in vitro (FIG. 3A and Table 2). Each probe was incubated with each protease in the panel and fluorescence was monitored over 45 minutes. Shown are sample kinetic plots monitoring dequenching of the 14 FRET-paired probes when incubated with (above) and without (below) recombinant matrix metalloproteinase 3 (MMP3) (FIG. 3B). […] See also FIG. 19.
Fluorogenic protease substrates were synthesized by CPC Scientific. Recombinant proteases were purchased from Enzo Life Sciences, R&D Systems and Haematologic Technologies. For recombinant protease assays, fluorogenic substrates PPQ1-14 (1 μM final concentration) were incubated in 30 μL final volume in appropriate enzyme buffer, according to manufacturer specifications, with 12.5 nM recombinant enzyme at 37° C. (FIG. 3). Proteolytic cleavage of substrates was quantified by increases in fluorescence over time by fluorimeter (Tecan Infinite M200 Pro). Enzyme cleavage rates were quantified as relative fluorescence increase over time normalized to fluorescence before addition of protease. Hierarchical clustering was performed in GENE-E, using fluorescence fold changes at 45 minutes.

[10] = system: Eml4-Alk (EA) lung adenocarcinoma model; test: urinary ABN readout and classification in Eml4-Alk model; format: in vivo; settings: EA mice
From the text: To assess the generalizability of ABNs to other genetic subtypes by leveraging the Eml4-Alk (EA) model Maddalo et al., Nature 516, 423-428 (2014), an autochthonous model in which intrapulmonary administration of adenovirus encoding two short guide RNAs (sgRNAs) and Cas9 results in translocation and fusion of the Eml4 and Alk genes, yielding lung adenocarcinoma that histologically resembles human disease.
Tumors were initiated in male C57BL/6 mice between 6 and 10 weeks old as described previously (50), by intratracheal administration of 50 μL adenovirus expressing the Ad-EA vector (Viraquest) (1.5×10^8 PFU in Opti-MEM with 10 mM CaCl2)).
It was determined whether the lung nanosensors could be prospectively applied to diagnose disease. […] The classifier was also evaluated on a test cohort that combined both LUAD models and again found strong classification at 7.5 weeks and 10.5 weeks (AUC7.5 wk s=0.97; AUC10.5 wk s=0.93) (FIG. 17C).
For all urine experiments, PAR values were normalized to ABN stock concentrations and then mean normalized across all reporters in a given urine sample prior to further statistical analysis. […] Ten independent train-test trials were run for each classification problem, and classification performance was evaluated with receiver operating characteristic (ROC) statistics calculated in MATLAB. […]

Row | Substance | cleavage by supernatant (fluorescence signal) [1] | cleavage by supernatant (fluorescence signal) ([2]; PA01 culture supernatant, fluorescence change at 30 minutes) | cleavage potency by Michaelis-Menten type analysis ([2]; range of substrate concentrations, compared with LAS substrate) | extent of cleavage compared with LAS-Q ([3]; bacterial-derived proteases) | strains whose supernatant gave significant cleavage ([3]; five clinical isolate strains) | cleavage by recombinant protease [4] | cleavage by recombinant protease [5] | cleavage by recombinant protease [6] | cleavage by recombinant protease [7] | urinary reporter enrichment [8] | protease class(es) cleaving the substrate in vitro [9] | urinary reporter enrichment [10]
1 | ELA-Q: FRET-paired (FAM fluorophore, Dabcyl quencher) substrate for elastases including neutrophil elastase; includes SEQ ID NO: 47 (GAAFAGK(FAM); also: Dabcyl quencher, site not given here) | Significant increases | Significant increases | more potently cleaved | more extensively cleaved | 3 of the 5 strains | resist cleavage | resist cleavage | cleaved | resist cleavage | – | – | –
2 | PP01: ABN: reporter e(+2G)(+6V)ndneeGFFsAr, ANP, substrate PQGIWGQ, nanocarrier PEG8-40 kDa (chain 1 [dE]G[+6V][dN][dD][dN][dE][dE]GFF[dS]A[dR]; not fully specified (some residues); printed as PP01: ABN: reporter e(+2G)(+6V)ndneeGFFsAr, ANP, substrate PQGIWGQ, nanocarrier PEG8-40 kDa; also: ANP photolabile linker, PEG8-40 kDa nanocarrier, linkage of reporter, ANP, substrate and carrier not given here) | – | – | – | – | – | – | – | – | – | not in KP mice | metalloprotease-specific | consistent enrichment
